How the values were obtained:
[1] = tested on: A549 (human non-small-cell lung cancer); test: MTT cytotoxicity assay, A549; format: cell-based; details: Homo sapiens, A549, 72 h treatment, read-out: Half Maximal Inhibitory Concentration (IC50) A549
Method in brief: (§1)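 Cells seeded at 3 × 10^3/well in DMEM/10% FBS, then treated 72 h with 3.125–50 μM compound in DMSO. MTT (5 mg/mL) added for 4 h, formazan dissolved in DMSO, absorbance read at 490 nm; inhibition relative to untreated control, IC50 as 50% growth inhibition, triplicate runs.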

[2] = tested on: H9c2 (murine heart myoblast); test: MTT toxicity evaluation, H9c2; format: cell-based; details: H9c2, 72 h treatment, non-tumor cells, read-out: Half Maximal Inhibitory Concentration (IC50) H9c2
Method in brief: as §1

[3] = tested on: A549 cells; test: Annexin V-FITC/PI staining, flow cytometry; format: cell-based, human; details: 72 h
Procedure: To further depict the apoptosis induced by compound 9, apoptotic rates were analyzed by flow cytometry using Annexin V-FITC/PI staining.
According to instructions, A549 cells were stained with an annexin-V FITC apoptosis detection kit (Beijing BioDee Biotech. Co., Ltd., Beijing, China). A549 cells in the logarithmic growth phase were seeded in six-well plates (4.8 × 10^4 cells/well). After incubation for 24 h at 37 °C with 5% CO2, various concentrations (0, 2, 5, or 10 μM) of compound 9 were added to the cultures, and the plate was incubated for a further 72 h. A549 cells were collected, washed twice with cold PBS, and centrifuged at 2400 rpm for 10 min. The resulting pellet was mixed with 200 μL of binding buffer of the Annexin V-FITC kit; then, 5 μL of FITC-labeled annexin V was added and mixed gently. After incubation at 4 °C for 10 min in the dark, 5 μL of PI was added. Then, the cells were immediately analyzed with a flow cytometer at 488 nm.

[4] = tested on: A549 cells; test: Cell-cycle analysis by PI staining, flow cytometry; format: cell-based, human; details: 72 h
Procedure: The remarkable activity of compound 9 against the A549 cell line prompted us to investigate its effect on the cell cycle of A549 by flow cytometry.
According to instructions, A549 cells were stained with the Cell Cycle and Apoptosis Analysis Kit (Beyotime Biotechnology, Shanghai, China). A549 cells in the logarithmic growth phase were seeded in six-well plates (4.8 × 10^4 cells/well). After incubation for 24 h at 37 °C with 5% CO2, various concentrations (0, 2, 5, or 10 μM) of compound 9 were added to the cultures, and the plate was incubated for a further 72 h. A549 cells were collected, washed twice with cold PBS, and centrifuged at 2400 rpm for 10 min. The resulting pellet was mixed with 1 mL of 70% ethanol, and retained for 12 h at 4 °C, before being centrifuged at 2400 rpm for 10 min. The supernatant was discarded, and the resulting pellet was mixed with 1mL of cold PBS and centrifuged at 2400 rpm for 10 min. Then, 0.5 mL of PI staining solution was added and mixed gently. After incubation at 37 °C for 30 min, the cells were immediately analyzed with a flow cytometer at 488 nm.

[5] = tested on: A549 cells; test: Giemsa staining, morphological detection of apoptosis; format: cell-based, human; details: 72 h
Procedure: With an increase in dose, the phenomenon of cell shrinkage and cell disruption became more obvious.
A549 cells in the logarithmic growth phase were seeded in 12-well plates (1.2 × 10^4 cells/well). After incubation for 24 h at 37 °C with 5% CO2, various concentrations (0, 2, 4, or 6 μM) of compound 9 were added to the cultures, and the plate was incubated for further 72 h. Then, we discarded the cell culture fluid, washed twice with phosphate-buffered saline (PBS), and fixed the cells with cold methanol. The A549 cells were stained with 6% Giemsa solution for 5 min, washed with water, and dried. The cell morphological changes were observed under an inverted microscope.

## Cc1cncc(C(=O)OCCOC(=O)[C@]23CCC(C)(C)CC2C2=CCC4[C@@]5(C)CC[C@H](O)[C@@](C)(CO)C5CC[C@@]4(C)[C@]2(C)CC3)n1 (stereo partly drawn) [Compound 9, 2-(((4aS,6aS,6bR,9R,10S,12aR)-10-Hydroxy-9-(hydroxymethyl)-2,2,6a,6b,9,12a-hexamethyl-1,2,3,4,4a,5,6,6a,6b,7,8,8a,9,10,11,12,12a,12b,13,14b-icosahydropicene-4a-carbonyl)oxy)ethyl-6-methylpyrazine-2-carboxylate]
[1]
  IC50: 3.45 ± 0.59 µM
[2]
  IC50: 16.69 ± 0.12 µM
[3]; 2 μM
  percentage of apoptotic cells (early and late apoptosis): 17.4%
[3]; 5 μM
  percentage of apoptotic cells (early and late apoptosis): 72.0%
[3]; 10 μM
  percentage of apoptotic cells (early and late apoptosis): 91.5%
[4]; 2 μM
  cells in G1 phase: 57.46%
  cells in G2 phase: 8.37%
  cells in S phase: 34.17%
[4]; 5 μM
  cells in G1 phase: 53.44%
  cells in G2 phase: 0.00%
  cells in S phase: 46.56%
[4]; 10 μM
  cells in G1 phase: 39.54%
  cells in G2 phase: 0.00%
  cells in S phase: 60.46%
[5]; 2 μM
  cell morphology, Giemsa staining: the cells had a lot of puffing and fragmentation
[5]; 6 μM
  cell morphology, Giemsa staining: almost no normal cell morphology

From paper PMC6213900, “Design, Synthesis, and Cytotoxic Analysis of Novel Hederagenin–Pyrazine Derivatives Based on Partial Least Squares Discriminant Analysis” (International Journal of Molecular Sciences, 2018)
